From US8765173B2, “Drug delivery system for administration of a water soluble, cationic and amphiphilic pharmaceutically active substance” (Ardenia Investments, Ltd., priority 2007, dated 2014)
In brackets after ≈: the same amount, converted by molar mass. Where a name gives a salt, the structure may show the parent alone.

Columns and labels:
physchem = details: water, thermodynamic from solid
[1] = Solubility in water by UV method; details: thermodynamic from solid
[2] = stated in Example 1 without method; cited from earlier work

| SMILES | solubility (physchem) | further results |
| --- | --- | --- |
| CC[C@@]1(O)C(=O)OCc2c1cc1n(c2=O)Cc2cc3c(CN(C)C)c(O)ccc3nc2-1 [topotecan in amine form, topotecan] | 90 µg/mL (≈ 214 µM) | – |
| COc1cccc2c1C(=O)c1c(O)c3c(c(O)c1C2=O)C[C@@](O)(C(=O)CO)C[C@@H]3O[C@H]1C[C@H](N)[C@H](O)[C@H](C)O1 [doxorubicin in amine form, doxorubicin] | – | solubility [1]: 15 µg/mL (≈ 27.6 µM) |
| O=C1c2c(O)ccc(O)c2C(=O)c2c(NCCNCCO)ccc(NCCNCCO)c21 [mitoxantrone in amine form, mitoxantrone] | 30 µg/mL (≈ 67.5 µM) | – |
| COc1cccc2c1C(=O)c1c(O)c3c(c(O)c1C2=O)C[C@@](O)(C(=O)CO)C[C@@H]3O[C@H]1C[C@H](N)[C@H](O)[C@H](C)O1 [doxorubicin hydrochloride] | – | soluble in water in an amount of [2]: more than 25 mg/ml |
